{
  "source": "patent US10836756B2",
  "about": "“Crystalline salts of peptide epoxyketone immunoproteasome inhibitor” (KEZAR LIFE SCIENCES, priority 2016, dated 2020)",
  "key": {"[1]": {"assay": "Stability of Form A and its freebase, one month storage", "type": "physicochemical", "settings": "for % Decomposition: 1 month", "description": "The stability of Form A and its freebase was tested at ambient conditions (25° C. and 40% relative humidity, “RH”), and at elevated temperature and humidity (40° C. and 75% RH) over the duration of one month."}, "[2]": {"assay": "Solubility of compound G (amorphous) and its monomaleate salt (crystalline) in water, buffers and solvents", "type": "physicochemical"}, "[3]": {"settings": "Olovson et al. 1986, Kumar et al. 2013; cited from earlier work"}, "[4]": {"assay": "pKa of the monomaleate salt", "type": "physicochemical"}},
  "note": "Where a name gives a salt, the structure may show the parent alone. Read-outs that look alike come from different tables or passages of the source.",
  "data": [
    {"compound": "COc1ccc([C@@H](O)[C@H](NC(=O)[C@H](C)NC(=O)CN2CCOCC2)C(=O)N[C@@H](CC2=CCCC2)C(=O)[C@@]2(C)CO2)cc1", "note": "[compound G, (2S,3R)—N-[(2S)-3-(cyclopent-1-en-1-yl)-1-[(2R)-2-methyloxiran-2-yl]-1-oxopropan-2-yl]-3-hydroxy-3-(4-methoxyphenyl)-2-[(2S)-2-[2-(morpholin-4-yl)acetamido]propanamido]propanamide]", "values": [
      {"measurement": "% Decomposition", "setting": "[1]; 25° C./40% RH, lot 1", "value": 1.9, "unit": "%"},
      {"measurement": "% Decomposition", "setting": "[1]; 25° C./40% RH, lot 2", "value": 1.6, "unit": "%"},
      {"measurement": "% Decomposition", "setting": "[1]; 25° C./40% RH, lot 3", "value": 1.4, "unit": "%"},
      {"measurement": "% Purity at 1 Month", "setting": "[1]; 25° C./40% RH, lot 1 (purity at t = 0 95.1)", "value": 93.2, "unit": "%"},
      {"measurement": "% Purity at 1 Month", "setting": "[1]; 25° C./40% RH, lot 2 (purity at t = 0 85.6)", "value": 84.0, "unit": "%"},
      {"measurement": "% Purity at 1 Month", "setting": "[1]; 25° C./40% RH, lot 3 (purity at t = 0 93.7)", "value": 92.3, "unit": "%"},
      {"measurement": "stability at elevated temperature and humidity (in words)", "setting": "[1]; 40° C. and 75% RH, one month", "value": "rapid decomposition"},
      {"measurement": "% Decomposition", "setting": "[1]; 40° C./75% RH, lot 1", "value": 67.5, "unit": "%"},
      {"measurement": "% Decomposition", "setting": "[1]; 40° C./75% RH, lot 2", "value": 28.8, "unit": "%"},
      {"measurement": "% Decomposition", "setting": "[1]; 40° C./75% RH, lot 3", "value": 21.1, "unit": "%"},
      {"measurement": "% Purity at 1 Month", "setting": "[1]; 40° C./75% RH, lot 1 (purity at t = 0 95.1)", "value": 92.3, "unit": "%"},
      {"measurement": "% Purity at 1 Month", "setting": "[1]; 40° C./75% RH, lot 2 (purity at t = 0 85.6)", "value": 92.3, "unit": "%"},
      {"measurement": "% Purity at 1 Month", "setting": "[1]; 40° C./75% RH, lot 3 (purity at t = 0 93.7)", "value": 72.5, "unit": "%"},
      {"measurement": "solubility", "setting": "[2]; 25 mM Na citrate buffer, pH 4.9, aqueous buffer, 25 mM Na Citrate, pH 4.9, amorphous, read-out: Solubility", "value": 46000, "unit": "µg/mL"},
      {"measurement": "solubility", "setting": "[2]; 25 mM Na citrate buffer, pH 5.1, aqueous buffer, 25 mM Na Citrate, pH 5.1, amorphous, read-out: Solubility", "value": 32000, "unit": "µg/mL"},
      {"measurement": "solubility", "setting": "[2]; 25 mM Na citrate buffer, pH 5.2, aqueous buffer, 25 mM Na Citrate, pH 5.2, amorphous, read-out: Solubility", "value": 24800, "unit": "µg/mL"},
      {"measurement": "solubility", "setting": "[2]; 25 mM Na citrate buffer, pH 5.4, aqueous buffer, 25 mM Na Citrate, pH 5.4, amorphous, read-out: Solubility", "value": 19500, "unit": "µg/mL"},
      {"measurement": "solubility", "setting": "[2]; 25 mM Na citrate buffer, pH 5.8, aqueous buffer, 25 mM Na Citrate, pH 5.8, amorphous, read-out: Solubility", "value": 11200, "unit": "µg/mL"},
      {"measurement": "solubility", "setting": "[2]; 25 mM Na citrate buffer, pH 6.3, aqueous buffer, 25 mM Na Citrate, pH 6.3, amorphous, read-out: Solubility", "value": 9800, "unit": "µg/mL"},
      {"measurement": "solubility", "setting": "[2]; 25 mM Na citrate buffer, pH 6.8, aqueous buffer, 25 mM Na Citrate, pH 6.8, amorphous, read-out: Solubility", "value": 8800, "unit": "µg/mL"},
      {"measurement": "solubility", "setting": "[2]; 0.9% saline, pH 7.6, saline or isotonic, 0.9% saline, pH 7.6, amorphous, read-out: Solubility", "value": 9400, "unit": "µg/mL"},
      {"measurement": "solubility", "setting": "[2]; 10% EtOH, aqueous with cosolvent or surfactant or cyclodextrin, EtOH, 10%, amorphous, read-out: Solubility", "value": 13700, "unit": "µg/mL"},
      {"measurement": "solubility", "setting": "[2]; 10% NMP, aqueous with cosolvent or surfactant or cyclodextrin, NMP, 10%, amorphous, read-out: Solubility", "value": 28800, "unit": "µg/mL"},
      {"measurement": "solubility", "setting": "[2]; 10% PEG 400, aqueous with cosolvent or surfactant or cyclodextrin, PEG 400, 10%, amorphous, read-out: Solubility", "value": 11800, "unit": "µg/mL"},
      {"measurement": "solubility", "setting": "[2]; 10% PG, aqueous with cosolvent or surfactant or cyclodextrin, PG, 10%, amorphous, read-out: Solubility", "value": 12100, "unit": "µg/mL"},
      {"measurement": "solubility", "setting": "[2]; 10% glycerol, aqueous with cosolvent or surfactant or cyclodextrin, glycerol, 10%, amorphous, read-out: Solubility", "value": 8600, "unit": "µg/mL"},
      {"measurement": "solubility", "setting": "[2]; 33% EtOH, aqueous with cosolvent or surfactant or cyclodextrin, EtOH, 33%, amorphous, read-out: Solubility", "value": 20000, "unit": "µg/mL"},
      {"measurement": "solubility", "setting": "[2]; 33% NMP, aqueous with cosolvent or surfactant or cyclodextrin, NMP, 33%, amorphous, read-out: Solubility", "value": "> 100000", "unit": "µg/mL"},
      {"measurement": "solubility", "setting": "[2]; 33% PEG 400, aqueous with cosolvent or surfactant or cyclodextrin, PEG 400, 33%, amorphous, read-out: Solubility", "value": 17400, "unit": "µg/mL"},
      {"measurement": "solubility", "setting": "[2]; 33% PG, aqueous with cosolvent or surfactant or cyclodextrin, PG, 33%, amorphous, read-out: Solubility", "value": 20500, "unit": "µg/mL"},
      {"measurement": "solubility", "setting": "[2]; 33% glycerol, aqueous with cosolvent or surfactant or cyclodextrin, glycerol, 33%, amorphous, read-out: Solubility", "value": 5800, "unit": "µg/mL"},
      {"measurement": "solubility", "setting": "[2]; 67% EtOH, aqueous with cosolvent or surfactant or cyclodextrin, EtOH, 67%, amorphous, read-out: Solubility", "value": "> 100000", "unit": "µg/mL"},
      {"measurement": "solubility", "setting": "[2]; 67% NMP, aqueous with cosolvent or surfactant or cyclodextrin, NMP, 67%, amorphous, read-out: Solubility", "value": "> 100000", "unit": "µg/mL"},
      {"measurement": "solubility", "setting": "[2]; 67% PEG 400, aqueous with cosolvent or surfactant or cyclodextrin, PEG 400, 67%, amorphous, read-out: Solubility", "value": "> 50000", "unit": "µg/mL"},
      {"measurement": "solubility", "setting": "[2]; 67% PG, aqueous with cosolvent or surfactant or cyclodextrin, PG, 67%, amorphous, read-out: Solubility", "value": "> 100000", "unit": "µg/mL"},
      {"measurement": "solubility", "setting": "[2]; 67% glycerol, aqueous with cosolvent or surfactant or cyclodextrin, glycerol, 67%, amorphous, read-out: Solubility", "value": 5400, "unit": "µg/mL"},
      {"measurement": "solubility", "setting": "[2]; 100% EtOH, organic solvent or mixture, EtOH, 100%, amorphous, read-out: Solubility", "value": "> 100000", "unit": "µg/mL"},
      {"measurement": "solubility", "setting": "[2]; 100% NMP, organic solvent or mixture, NMP, 100%, amorphous, read-out: Solubility", "value": "> 100000", "unit": "µg/mL"},
      {"measurement": "solubility", "setting": "[2]; 100% PEG 400, organic solvent or mixture, PEG 400, 100%, amorphous, read-out: Solubility", "value": "> 50000", "unit": "µg/mL"},
      {"measurement": "solubility", "setting": "[2]; 100% PG, organic solvent or mixture, PG, 100%, amorphous, read-out: Solubility", "value": "> 100000", "unit": "µg/mL"},
      {"measurement": "solubility", "setting": "[2]; PBS, pH 7.2, aqueous buffer, PBS, pH 7.2, amorphous, read-out: Solubility", "value": 7600, "unit": "µg/mL"},
      {"measurement": "solubility", "setting": "[2]; glycerol, 100%, amorphous", "value": "not soluble"},
      {"measurement": "solubility", "setting": "[2]; water, pH 7.4, water, Water, pH 7.4, amorphous, read-out: Solubility", "value": 8900, "unit": "µg/mL"},
      {"measurement": "solubility", "setting": "[2]; water, read-out: solubility in water", "value": 8900, "unit": "µg/mL"}
    ]},
    {"compound": "C=CCc1ccccc1OCC(O)CNC(C)C", "note": "(stereo not drawn) [alprenolol]", "values": [
      {"measurement": "solubility of the maleate salt compared to other counterions, such as fumarate", "setting": "[3]", "value": "decreased solubility"}
    ]},
    {"compound": "COc1ccc([C@@H](O)[C@H](NC(=O)[C@H](C)NC(=O)CN2CCOCC2)C(=O)N[C@@H](CC2=CCCC2)C(=O)[C@@]2(C)CO2)cc1", "note": "[monomaleate salt of compound G]", "values": [
      {"measurement": "pKa", "setting": "[4]", "value": 5},
      {"measurement": "solubility", "setting": "[2]; 2-methyltetrahydrofuran, organic solvent or mixture, 2-Methyltetrahydrofuran, crystalline, read-out: Solubility", "value": 1760, "unit": "µg/mL"},
      {"measurement": "solubility", "setting": "[2]; acetone, organic solvent or mixture, Acetone, crystalline, read-out: Solubility", "value": 3190, "unit": "µg/mL"},
      {"measurement": "solubility", "setting": "[2]; acetonitrile, organic solvent or mixture, Acetonitrile (ACN), crystalline, read-out: Solubility", "value": 1300, "unit": "µg/mL"},
      {"measurement": "solubility", "setting": "[2]; aqueous medium, aqueous, read-out: aqueous solubility", "value": "> 100000", "unit": "µg/mL"},
      {"measurement": "solubility", "setting": "[2]; dichloromethane, organic solvent or mixture, Dichloromethane (DCM), crystalline, read-out: Solubility", "value": 210, "unit": "µg/mL"},
      {"measurement": "solubility", "setting": "[2]; ethanol, organic solvent or mixture, Ethanol (EtOH), crystalline, read-out: Solubility", "value": 6970, "unit": "µg/mL"},
      {"measurement": "solubility", "setting": "[2]; ethyl acetate, organic solvent or mixture, Ethyl acetate (EA), crystalline, read-out: Solubility", "value": 470, "unit": "µg/mL"},
      {"measurement": "solubility", "setting": "[2]; isopropanol, organic solvent or mixture, Isopropanol (IPA), crystalline, read-out: Solubility", "value": 3280, "unit": "µg/mL"},
      {"measurement": "solubility", "setting": "[2]; isopropyl acetate, organic solvent or mixture, Isopropyl acetate (IPAc), crystalline, read-out: Solubility", "value": 130, "unit": "µg/mL"},
      {"measurement": "solubility", "setting": "[2]; methanol, organic solvent or mixture, Methanol (MeOH), crystalline, read-out: Solubility", "value": 42100, "unit": "µg/mL"},
      {"measurement": "solubility", "setting": "[2]; methyl tert-butyl ether, organic solvent or mixture, Methyl tert-butyl ether (MTBE), crystalline, read-out: Solubility", "value": 170, "unit": "µg/mL"},
      {"measurement": "solubility", "setting": "[2]; tetrahydrofuran, organic solvent or mixture, Tetrahydrofuran (THF), crystalline, read-out: Solubility", "value": 1960, "unit": "µg/mL"},
      {"measurement": "solubility", "setting": "[2]; toluene, organic solvent or mixture, Toluene, crystalline, read-out: Solubility", "value": 20, "unit": "µg/mL"},
      {"measurement": "solubility", "setting": "[2]; water, ambient temperature (e.g., 20° C. to 25° C.), read-out: solubility in water", "value": "> 100000", "unit": "µg/mL"}
    ]}
  ]
}
